For data set [1], the system named is A549 cells. Description: Combined effect of SeMet with BCNU, cell survival. Format: cell-based, human. As to conditions: A549 transfected with rAd-MET, 20% FBS. As for the experimental part:
A549 cells that had been transfected with rAd-MET were cultured in RPMI with 20% FBS with and without 8 μM SeMet. In each case, duplicate samples were cultured without BCNU and in the presence of 300 μM BCNU. Cell survival was determined […]. With no treatment, 100% of the cells survived; in the presence of SeMet alone, 80% of the cells survived. In the absence of SeMet, but in the presence of BCNU, 55% cell survival was obtained; in the presence of 8 μM SeMet and 300 μM BCNU, less than 10% of the cells survived. Thus, SeMet dramatically enhances the effect of BCNU.

The next data set relates to MIA PaCa-2. The data set can be described thus: MTT assay, serial dilutions of SeMet on transduced cells. The format is cell-based. The following applies: Homo sapiens. The protocol: (§1) Cells (4×10^3) of various tumor lines were seeded onto 96-well plates. After 24 hours, serial dilutions of the methioninase expressing vector (rAd-MET) or a control vector containing no methioninase encoding nucleotide sequence (rAd) were added to the wells with and without 20 μM of selenomethionine (SeMet) (20 μM). After incubating the plates for three (3) days, the medium was replaced with 0.5 mg/ml MTT for two (2) hours and analyzed using a microplate reader (BioRad), in a standard MTT assay. Results were recorded as percentage of surviving cells.
(§2) The cell lines were also evaluated for their response to varying concentrations of SeMet. In these protocols, the cells were seeded as above into 96-well plates and infected with 4×10^5 pfu of rAd-MET or control rAd. After 24 hours, serial dilutions of SeMet were added and three (3) days later cytotoxicity was evaluated with the MTT assay as described in Example 2. The results are shown for OVCAR-8 cells in FIG. 6.
(In general: Tetrazolium dyes change colour on reduction, which living cells bring about.)

The next data set relates to BxPC-3. The description is as above. The following applies: Homo sapiens. The format is cell-based. As for the experimental part:
as §1, §2

The subject of another data set is A549. The data set is described as above. Format: cell-based. The following applies: Homo sapiens. The protocol:
as §1, §2

In another data set the test system is Hep-2. Described as above. The format is cell-based. As to conditions: Homo sapiens. As for the experimental part:
as §1, §2

The test system of a further data set is EKVX. The data set is described as above. The following applies: Homo sapiens. Format: cell-based. The protocol:
as §1, §2

The test system of data set [2] is A549 cells. Description: Combined effect of SeMet with doxorubicin, cell survival. Format: cell-based, human. The following applies: A549 transfected with rAd-MET, 10% FBS. As for the experimental part:
In a similar experiment, A549 cells that had been transfected with rAd-MET were cultured in RPMI with 10% FBS in the presence and absence of 4 μM SeMet and with and without 0.4 μM doxorubicin. In the presence of doxorubicin alone, a 75% cell survival rate was obtained; when SeMet was present alone, a 60% cell survival rate was obtained.

Another data set relates to human tumor cell lines. The data set can be described thus: MTT assay, summary statements over all tumor cell lines. The following applies: virtually all cell lines. Format: cell-based. As for the experimental part:
as §1
The cell lines tested were human cancer cell lines OVCAR-8 (ovarian cancer), A549 and EKVX (lung cancer), Hep-2 (head and neck cancer), MIA PaCa-2 and BxPC-3 (pancreatic cancer), human rhabdomyosarcoma cell line A204 and human prostate cell line PC-3. The results with respect to the OVCAR-8 cell line and cell lines A204, and PC-3 are shown in FIGS. 2, 3 and 4 in X/Y graphs; FIG. 5 is a bar graph of the results with respect to the A549 cell line.
The cell lines were also evaluated for their response to varying concentrations of SeMet. In these protocols, the cells were seeded as above into 96-well plates and infected with 4×10^5 pfu of rAd-MET or control rAd. After 24 hours, serial dilutions of SeMet were added and three (3) days later cytotoxicity was evaluated with the MTT assay as described in Example 2. […]

A further data set relates to keratinocytes. As to conditions: at the concentrations studied; cited from earlier work.
In data set [3] the test system is A549 human lung cancer cells. Description: Combined variation of rAd-MET and SeMet, percentage of surviving cells. The format is cell-based. As for the experimental part:
The experiments described in Examples 2 and 3 were performed on A549 human lung cancer cells using varying concentrations of SeMet from 0-40 μM and of virus rAd-MET titer of 0-8×10^5 pfu using rAd as a control. Percentage of surviving cells was again used as an index of efficacy.

The subject of the next data set is OVCAR-8. Description: MTT assay, serial dilutions of SeMet on transduced cells. The format is cell-based, human. As to conditions: for IC50: Homo sapiens. The protocol:
as §1, §2

In data set [4] the test system is A549 cells. The data set can be described thus: ROS generation, lucigenin-dependent chemiluminescence. Format: cell-based, human. As to conditions: for chemiluminescence relative to control: 30 minutes. As for the experimental part:
It is believed that selenium cytotoxicity is mediated by generation of reactive oxygen species (ROS). This can be measured by standard techniques which employ lucigenin-dependent chemiluminescence as described by Yan, L., et al., Biochem Pharmacol (1993) 45:429-437, cited above.
A549 cells were transduced with rAd-MET at MOI of 50, 24 hours before measurement. The cells (1×10^6) were incubated in 1 ml RPMI in the presence of SeMet with or without 10 units of superoxide dismutase (SOD) for 30 minutes. Lucigenin (50 μg) was added to the cell suspension just prior to measurement and integrated chemiluminescence was measured for 10 seconds, three times, using a TD21 luminometer (Turner Designs).

Where two headings read alike, the source gives them in different places.

In general, IC50 refers to the concentration that gives 50% inhibition.

On to `O=NN(CCCl)C(=O)NCCCl` [BCNU, reference compound], for which the cell survival with A549 cells [1] (300 μM BCNU, no SeMet) turned out to be 55%.

For the molecule `C[Se]CC[C@H](N)C(=O)O` [SeMet, selenomethionine], the IC50 was 422 µM in the data set with MIA PaCa-2 (MIA PaCa-2, read-out: SeMet IC50 (μM)); 338 µM with MIA PaCa-2 (MIA PaCa-2, read-out: SeMet IC50 (μM), MIA PaCa-2 transduced with Control-rAd 4×10^5 pfu); 3.86 µM in the data set on MIA PaCa-2 (MIA PaCa-2, read-out: SeMet IC50 (μM), MIA PaCa-2 transduced with rAd-MET 4×10^5 pfu); 312 µM with BxPC-3 (BXPC-3, read-out: SeMet IC50 (μM)); 223 µM in the data set on BxPC-3 (BXPC-3, read-out: SeMet IC50 (μM), BxPC-3 transduced with Control-rAd 4×10^5 pfu); 3.38 µM in the data set with BxPC-3 (BXPC-3, read-out: SeMet IC50 (μM), BxPC-3 transduced with rAd-MET 4×10^5 pfu). Further, the concentration for half-maximal inhibition (IC50) in the data set with A549 (A549, read-out: SeMet IC50 (μM)) came out at 486 µM; in the data set on A549 (A549, read-out: SeMet IC50 (μM), A549 transduced with Control-rAd 4×10^5 pfu) it was 327 µM; in the data set with A549 (A549, read-out: SeMet IC50 (μM), A549 transduced with rAd-MET 4×10^5 pfu), 0.5 µM; with Hep-2 (HEp-2, read-out: SeMet IC50 (μM)), 411 µM; in the data set with Hep-2 (HEp-2, read-out: SeMet IC50 (μM), Hep-2 transduced with Control-rAd 4×10^5 pfu) it was 387 µM; in the data set with Hep-2 (HEp-2, read-out: SeMet IC50 (μM), Hep-2 transduced with rAd-MET 4×10^5 pfu) it was 1.66 µM. For the same molecule, the IC50 is 1360 µM with EKVX (read-out: SeMet IC50 (μM)); 686 µM in the data set with EKVX (read-out: SeMet IC50 (μM), EKVX transduced with Control-rAd 4×10^5 pfu); 1.66 µM in the data set with EKVX (read-out: SeMet IC50 (μM), EKVX transduced with rAd-MET 4×10^5 pfu); 224 µM in the data set with OVCAR-8 (OVCAR-8, read-out: SeMet IC50 (μM)); 170 µM in the data set with OVCAR-8 (OVCAR-8, read-out: SeMet IC50 (μM), OVCAR-8 transduced with Control-rAd 4×10^5 pfu); 0.59 µM in the data set with OVCAR-8 (OVCAR-8, read-out: SeMet IC50 (μM), OVCAR-8 transduced with rAd-MET 4×10^5 pfu). Further, the cell survival rate in the data set on A549 cells [2] (4 μM SeMet alone) is 60%. In the data set on human tumor cell lines, the “change in IC50 for SeMet in the presence of rAd-MET” value is “dramatic decrease in IC50”. For the same molecule, the cytotoxicity in keratinocytes result with keratinocytes is “not cytotoxic”. In the data set on keratinocytes, the “induction of apoptosis in keratinocytes” value is recorded as “did not induce cellular apoptosis”. Further, in data set [3] (A549, control vector, SeMet 20-40 μM, FIG. 7), the “toxicity of selenomethionine itself” value was “slight toxicity”. Also, the cells survived in data set [3] (A549, rAd-MET 4×10^5, SeMet 2.5 μM) amounted to 50%. In addition, the cell survival result in [3] (A549, rAd-MET 8×10^5 pfu, SeMet 5 μM or more) is listed as “substantially no cells survived”; in the data set with A549 cells [1] (8 μM SeMet alone), 80%. Further, the viability result in data set [3] (A549, rAd-MET 5,000 pfu, SeMet 20-40 μM, FIG. 8) was “drastically reduced viability”. Moreover, in the data set on OVCAR-8 (OVCAR-8 cells, FIG. 6), the “lowering of IC50 for SeMet in the presence of rAd-MET as compared to control rAd” value is “lowered over a thousandfold”. In addition, in the data set with A549 cells [4] (10 units SOD, 160 μM and 40 μM SeMet), the “effect of superoxide dismutase on SeMet-dependent chemiluminescence” value is recorded as “inhibited by SOD”. Besides, the “chemiluminescence relative to control” value in the data set with A549 cells [4] (A549 transduced with rAd-MET MOI 50, 40 μM SeMet) is on record as 20 times; in the data set with A549 cells [4] (A549 transduced with rAd-MET MOI 50, 160 μM SeMet), “over 100 times”.

On to `COc1cccc2c1C(=O)c1c(O)c3c(c(O)c1C2=O)C[C@@](O)(C(=O)CO)C[C@@H]3O[C@H]1C[C@H](N)[C@H](O)[C@H](C)O1` [doxorubicin, reference compound], for which the cell survival rate with A549 cells [2] (0.4 μM doxorubicin alone) is 75%.

Take `O=[Se](O)O` [selenite]: in the data set on keratinocytes, the cytotoxicity in keratinocytes entry is given as “cytotoxic” and the “induction of apoptosis in keratinocytes” value is recorded as “induced apoptosis”.

In the case of `NCC[Se][Se]CCN` [selenocystamine], in the data set on keratinocytes, the cytotoxicity in keratinocytes result is “cytotoxic” and the “induction of apoptosis in keratinocytes” value is “induced apoptosis”.

Regarding `N[C@@H](C[Se][Se]C[C@H](N)C(=O)O)C(=O)O` [selenocystine], in the data set on keratinocytes, the cytotoxicity in keratinocytes result was “cytotoxic” and the “induction of apoptosis in keratinocytes” value is reported as “induced apoptosis”.

The values above are taken from US6916793B2, “Selenium-containing pro-drugs for cancer therapy” (priority 1999, dated 2005).
